Results: article PMC7497679, “Structure-based design, synthesis, and evaluation of the biological activity of novel phosphoroorganic small molecule IAP antagonists” (Investigational New Drugs, 2020)

Columns and labels:
Assay in all cases: Antiproliferative activity, SRB method
Type in all cases: cell-based, human
A549 = settings: Homo sapiens, A549, 10 µM, 72 h, read-out: mean proliferation inhibition at highest concentration used, A549
From the text: (§1) MDA-MB-231 (human breast cancer), MCF10A (human, nontumorigenic mammary gland epithelial cells), A549 (human nonsmall-cell lung cancer), UMUC-3 (human bladder cancer) and LoVo (human colon cancer) cell lines were obtained from the American Type Culture Collection (ATCC; Rockville, Maryland, USA). The MCF-7 cell line (human breast cancer) was obtained from the European Collection of Cell Cultures (ECACC; Salisbury, UK). All cell lines were maintained at the Hirszfeld Institute of Immunology and Experimental Therapy (HIIET), Wrocław, Poland. MDA-MB-231 cells were cultured in RPMI1640 medium (Thermo Fisher Scientific, Warszawa, Poland) supplemented with 2 mM L-glutamine, 1 mM sodium pyruvate, and 10% fetal bovine serum (all from Sigma-Aldrich, Poznań, Poland). The MCF10A cell line was cultured in Ham’s F12 medium with glutamine (Corning) supplemented with 5% (v/v) fetal bovine serum (FBS), 5% (v/v) horse serum, 10 µg/mL insulin, 0.05 µg/mL cholera toxin, 0.5 µg/mL hydrocortisone, and 20 ng/mL hEGF (all from Sigma-Aldrich). A549 and LoVo cells were cultured in a 1:1 (v/v) mixture of RPMI1640 and Opti-MEM (both from HIIET) supplemented with 5% (v/v) FBS and 2 mM L-glutamine. The UMUC-3 cell line was cultured in high glucose DMEM (Thermo Fisher Scientific) supplemented with 10% FBS and 2 mM Lglutamine. The MCF-7 line was cultured in Eagle’s minimal essential medium (EMEM; Thermo Fisher Scientific) supplemented with 10% (v/v) FBS, 2 mM L-glutamine, 1% (v/v) nonessential amino acids, and 8 µg/mL insulin (all from Sigma-Aldrich). All culture media contained 100 µg/mL streptomycin (Sigma-Aldrich) and 100 U/mL penicillin (Polfa Tarchomin SA, Warszawa, Poland). The cells were grown at 37 °C in a humid atmosphere saturated with 5% CO2.
(§2) Antiproliferative activity was assessed in six cell lines utilizing the sulforhodamine B (SRB) method. Briefly, cells were seeded in 96-well plates (Sarstedt, Warszawa, Poland) at a density of 5 × 10^3 cells/well, and after overnight incubation, the cells were exposed to compounds at various concentrations. After 72 h, the plates were fixed with 50% (v/v) TCA (all from Sigma-Aldrich), washed with tap water, and the precipitated proteins were labeled with 0.1% (w/v) SRB solution in 1% (v/v) AcOH. Next, the plates were washed with 1% (v/v) AcOH, and the remaining SRB dye was solubilized with 10 mM unbuffered TRIS solution. The absorbance was measured using a Biotek Hybrid H4 reader (BioTek Instruments, VT, USA) at 540 nm. Crude results were analyzed using a previously described method, and the results are expressed as the IC50 (compound concentration that reduced cell growth by 50%) compared to the vehicletreated control (0.1% (v/v) DMSO). The samples were analyzed in triplicate, and each experiment was repeated at least three times.

LoVo = settings: Homo sapiens, LoVo, 10 µM, 72 h, read-out: mean proliferation inhibition at highest concentration used, LoVo
From the text: as §1, §2

MDA-MB-231 = settings: Homo sapiens, MDA-MB-231, 72 h, read-out: IC50 ± SD (n = 3) MDA-MB-231
From the text: as §1, §2

MCF-10A = settings: Homo sapiens, MCF-10A, 10 µM, 72 h, read-out: mean proliferation inhibition at highest concentration used, MCF-10A
From the text: as §1, §2

MCF-7 = settings: Homo sapiens, MCF7, 10 µM, 72 h, read-out: mean proliferation inhibition at highest concentration used, MCF-7
From the text: as §1, §2

UMUC-3 = settings: Homo sapiens, UMUC3, 10 µM, 72 h, read-out: mean proliferation inhibition at highest concentration used, UMUC-3
From the text: as §1, §2

| Compound | inhibition at 10 µM (A549) [%] | inhibition at 10 µM (LoVo) [%] | IC50 (MDA-MB-231) [µM] | inhibition at 10 µM (MCF-10A) [%] | inhibition at 10 µM (MCF-7) [%] | inhibition at 10 µM (UMUC-3) [%] |
| --- | --- | --- | --- | --- | --- | --- |
| CN[C@@H](C)C(=O)N[C@H](C(=O)N1CCC[C@H]1C(=O)NC(Cc1ccccc1)P(=O)(Oc1ccccc1)Oc1ccccc1)C(C)C (stereo partly drawn) [Compound 41, diphenyl (1-((S)-1-((S)-3-methyl-2-((S)-2-(methylamino)propanamido)butanoyl)pyrrolidine-2-carboxamido)-2-phenylethyl)phosphonate] | 10 | 11 | 2.58 ± 0.32 | 2 | 20 | 5 |
| CN[C@@H](C)C(=O)N[C@H](C(=O)N1CCC[C@H]1C(=O)NC(Cc1ccccc1)P(=O)(Oc1ccccc1)Oc1ccccc1)C1CCCCC1 (stereo partly drawn) [Compound 42, diphenyl (1-((S)-1-((S)-2-cyclohexyl-2-((S)-2-(methylamino)propanamido)acetyl)pyrrolidine-2-carboxamido)-2-phenylethyl)phosphonate] | 23 | 12 | 2.46 ± 0.38 | 2 | 16 | 6 |
